Source: patent EP1785723A1, “Micro calorimetric analysis of mammalian cell susceptibility to agents that affect cell growth, metabolism and immune response, and use of micro calorimetric analysis in a transplantation test” (Stratos Bio Ltd., priority 2005, dated 2007)

Columns and labels:
respiring E.coli = assay: Flow microcalorimetry, p-t curves of respiring cells in glucose buffer; assay type: cell-based; settings: for Effect on power: neomycin alone added to respiring E.coli, Fig. 16; for Effect on p-t curve / power output: Polymyxin B alone, concentration not stated, Fig. 15
Procedure: For a typical calorimetric incubation the medium was passed through the calorimetric vessel at the same flow rate and temperature as those used in the experiment to establish a steady baseline deflection. The following operations then took place to a strict timetable. The liquid nitrogen stored ampoule was thawed at 38°C for 3 min and then stirred for 20 sec on a whirlimixer. The bacterial suspension (0.5-1.5ml) volumes was inoculated into the medium (100ml) two minutes after completion of thawing. A Gilson automatic pipette was used for inoculation. The calorimeter inlet flow-line was placed in the incubation medium 30 seconds after inoculation. The flowing incubation medium reached the calorimetric vessel two min after inlet flow-line insertion. At this time the recording of the p-t curves was started. Eight min after inoculation the outflow from the calorimeter was returned to the fermenter (after the "baseline" medium had run to waste but before the inoculated medium ran to waste) thus making a closed system. Aeration was started as soon as the inlet tube was inserted in the fermenter. Microbiological purity of the culture was checked by plating out a sample of the culture at the end of each incubation on nutrient agar (lab M).
The output of calorimetric experiments is a plot of power (energy evolution per unit of time) as a function of time. The unit of power (p) is the Watt (W) and the unit of time is the hour (h). In some experiments seconds (s) were used as time unit.
E.coli was suspended in 10% DMSO prior to freezing and the viable counts were for batch 1: pre-freeze: 4.0 ± 0.6_ x 10^10 cfu/ml and post -freeze 2.0 ± 0.44 x 10^10 cfu/ml and for batch 2: pre-freeze: 3.45 ± 0.58 x 10^10 cfu/ml and post-freeze 2.93 ± 0.43 x 10^10 cfu/ml. The freezing rate for both batches was 20°C/min the survival rate was 50% for batch 1 and 85% for batch 2. These differences may have been due to batch 1 being kept for 24h at 4°C before being frozen.
The respiration experiments were carried out in glucose buffer at different pH. The respiration curves obtained from batch 1 (inoculum 2 x 10^10 cfu/ml) and batch 2 Inoculum 3.2 x 10^10 cfu/ml) were essentially similar and a mean was used as a reference). The respiration experiments were carried out at pH 7 for polymyxin and Znbacitracin and at pH 8 for neomycin. No differences in p-t control curves could be observed at pH 7 or pH 8.
The p-t curves rose and reached a plateau as has been observed for respiration of yeasts and some 20 min later fell to a lower plateau value. Prior incubation of the cells in the buffered glucose for periods up to 20 min before presentation to the calorimeter could reduce or entirely remove this effect.

Bacillus Pumilus = assay: Flow microcalorimetry, p-t curves of growing culture with antibiotics and mixtures; assay type: cell-based
Text: To the vertical face of the vessel close to its base, equidistantly spaced around the circumference, ports were fitted for an oxygen electrode and for sampling/inoculation. The fermenter was closed with a flat flanged glass lid which had five ports accommodating respectively, gas inlet tube, gas exhaust (via air condenser), inlet and outlet flow-lines to and from the calorimeter. The fermenter and lid was sealed with a p.t.f.e. gasket and clamped with a metal clip. The fermenter was placed on a magnetic stirring unit in a water jacket which allowed circulation of the thermostatically controlled water at 30°C or 37°C. The fermenter which contained a Teflon coated magnetic stirring bar, was sterilised by autoclaving.
For a typical calorimetric incubation the medium was passed through the calorimetric vessel at the same flow rate and temperature as those used in the experiment to establish a steady baseline deflection. The following operations then took place to a strict timetable. The liquid nitrogen stored ampoule was thawed at 38°C for 3 min and then stirred for 20 sec on a whirlimixer. The bacterial suspension (0.5-1.5ml) volumes was inoculated into the medium (100ml) two minutes after completion of thawing. A Gilson automatic pipette was used for inoculation. The calorimeter inlet flow-line was placed in the incubation medium 30 seconds after inoculation. […]

[1] = POLB 6.3 ug/ml, respiration, pH 7

NC[C@@H]1O[C@H](O[C@H]2[C@@H](O)[C@H](O[C@@H]3[C@@H](O)[C@H](N)C[C@H](N)[C@H]3O[C@H]3O[C@H](CN)[C@@H](O)[C@H](O)[C@H]3N)O[C@@H]2CO)[C@H](N)[C@@H](O)[C@@H]1O [NEO, neomycin]
Linear dose-response range (respiring E.coli; NEO, respiration, pH 8): 10 to 100 µg/mL
Effect on heat output (respiring E.coli; all concentrations of Neomycin, respiring E.coli): caused an increased heat output
Effect on power (respiring E.coli; listed as Neomycin): caused an increase in power output
Effect on power (respiring E.coli; listed as neomycin): caused an increase in power
Range of linear relationship between dose and the reciprocal of increase in response from the control curve (respiring E.coli; neomycin, respiring E.coli): 20 to 100 µg/mL
Effect on power output in growth studies (Bacillus Pumilus; concentration not given): increase in power output

Polymyxin B [POLB]
Observed effect on p-t curves (respiring E.coli; [1]): Reduced height of p-t curve initially
Time of return of p-t curve to baseline (respiring E.coli; [1]): ≤ 1 h
Effect on p-t curve / power output (respiring E.coli; listed as Polymyxin B): reduced the initial peak height and thereafter the p-t curve returned to baseline
Effect on p-t curve / power output (respiring E.coli; listed as polymyxin B): severe reduction in power output followed by a return to baseline
Time within which growth was inhibited completely (Bacillus Pumilus; 20ug/ml POLB, bacterial concentration printed '0?' as % of p-t curve, pH 8.00): Within 9 hours growth was inhibited completely
